Experimental data from ChEMBL document CHEMBL4507310, “Data for DCP probe A-1211212” (2021).

Key:
[1] = molecular target: Calcitonin-gene-related peptide receptor, CALCRL/RAMP1 (Homo sapiens) (UniProt O60894+Q16602); test: CGRP (h) Eurofins-Cerep binding assay; type: protein-complex assay; design: ligand concentration 0.03 nM; details: filed as agonist, Compound concentration 10.0 uM
[2] = molecular target: T1, Muscarinic acetylcholine receptor M2 (Homo sapiens) (UniProt P08172); test: M2 (h) Eurofins-Cerep binding assay; design: ligand concentration 2 nM; details: filed as antagonist, Compound concentration 10.0 uM
T1 sequence (whole entry): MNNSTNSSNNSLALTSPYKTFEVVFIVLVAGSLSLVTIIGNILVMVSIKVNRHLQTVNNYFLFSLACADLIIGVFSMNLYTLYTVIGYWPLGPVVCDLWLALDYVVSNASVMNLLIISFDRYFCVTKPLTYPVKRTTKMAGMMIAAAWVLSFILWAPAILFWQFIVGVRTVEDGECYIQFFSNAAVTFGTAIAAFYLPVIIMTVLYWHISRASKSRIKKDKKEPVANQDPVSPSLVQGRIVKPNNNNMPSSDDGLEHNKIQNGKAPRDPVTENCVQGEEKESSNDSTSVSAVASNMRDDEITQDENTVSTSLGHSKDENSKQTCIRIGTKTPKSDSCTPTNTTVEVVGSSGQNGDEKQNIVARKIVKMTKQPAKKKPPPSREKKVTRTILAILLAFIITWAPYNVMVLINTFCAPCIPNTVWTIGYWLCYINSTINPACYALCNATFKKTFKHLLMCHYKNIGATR

[3] = molecular target: Substance-K receptor (Homo sapiens) (UniProt P21452); test: NK2 (h) Eurofins-Cerep binding assay; design: ligand concentration 0.1 nM; details: filed as agonist, Compound concentration 10.0 uM
[4] = molecular target: Vasopressin V1a receptor (Homo sapiens) (UniProt P37288); test: V1 a (h) Eurofins-Cerep binding assay; design: ligand concentration 0.3 nM; details: filed as agonist, Compound concentration 10.0 uM
Sequence of Vasopressin V1a receptor (Homo sapiens) (P37288 whole entry, looked up): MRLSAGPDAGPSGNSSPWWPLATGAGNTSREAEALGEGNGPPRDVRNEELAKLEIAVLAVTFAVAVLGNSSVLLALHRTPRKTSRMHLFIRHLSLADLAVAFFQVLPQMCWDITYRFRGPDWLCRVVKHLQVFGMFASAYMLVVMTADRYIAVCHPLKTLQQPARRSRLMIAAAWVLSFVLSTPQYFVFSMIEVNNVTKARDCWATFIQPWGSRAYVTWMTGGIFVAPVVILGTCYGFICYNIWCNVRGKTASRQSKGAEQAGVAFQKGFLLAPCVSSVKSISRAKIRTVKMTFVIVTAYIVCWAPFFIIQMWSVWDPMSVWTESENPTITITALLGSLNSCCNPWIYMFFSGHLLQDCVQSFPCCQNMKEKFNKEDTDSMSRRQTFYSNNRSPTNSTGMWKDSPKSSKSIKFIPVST

[5] = system: Tyrosine-protein kinase ABL1 (Homo sapiens), P00519 [M351T]; details: Compound concentration 1000.0 nM
[6] = molecular target: Tyrosine-protein kinase ABL2 (Homo sapiens) (UniProt P42684); details: Compound concentration 1000.0 nM
[7] = molecular target: RAC-gamma serine/threonine-protein kinase (Homo sapiens) (UniProt Q9Y243); details: Compound concentration 1000.0 nM
[8] = molecular target: Tyrosine-protein kinase Blk (Homo sapiens) (UniProt P51451); details: Compound concentration 1000.0 nM
[9] = molecular target: Calcium/calmodulin-dependent protein kinase type 1D (Homo sapiens) (UniProt Q8IU85); details: Compound concentration 1000.0 nM
[10] = molecular target: Calcium/calmodulin-dependent protein kinase type 1G (Homo sapiens) (UniProt Q96NX5); details: Compound concentration 1000.0 nM
[11] = molecular target: Cyclin-dependent kinase 9 (Homo sapiens) (UniProt P50750); details: Compound concentration 1000.0 nM
[12] = molecular target: Casein kinase I isoform gamma-3 (Homo sapiens) (UniProt Q9Y6M4); details: Compound concentration 1000.0 nM
[13] = molecular target: Megakaryocyte-associated tyrosine-protein kinase (Homo sapiens) (UniProt P42679); details: Compound concentration 1000.0 nM
[14] = molecular target: Eukaryotic translation initiation factor 2-alpha kinase 1 (Homo sapiens) (UniProt Q9BQI3); details: Compound concentration 1000.0 nM
[15] = molecular target: Ephrin type-A receptor 7 (Homo sapiens) (UniProt Q15375); details: Compound concentration 1000.0 nM
[16] = molecular target: Mitogen-activated protein kinase 15 (Homo sapiens) (UniProt Q8TD08); details: Compound concentration 1000.0 nM
[17] = system: Fibroblast growth factor receptor 3 (Homo sapiens), P22607 [G697C]; details: Compound concentration 1000.0 nM
Sequence of Fibroblast growth factor receptor 3 (Homo sapiens), P22607 [G697C] (P22607 whole entry G697C): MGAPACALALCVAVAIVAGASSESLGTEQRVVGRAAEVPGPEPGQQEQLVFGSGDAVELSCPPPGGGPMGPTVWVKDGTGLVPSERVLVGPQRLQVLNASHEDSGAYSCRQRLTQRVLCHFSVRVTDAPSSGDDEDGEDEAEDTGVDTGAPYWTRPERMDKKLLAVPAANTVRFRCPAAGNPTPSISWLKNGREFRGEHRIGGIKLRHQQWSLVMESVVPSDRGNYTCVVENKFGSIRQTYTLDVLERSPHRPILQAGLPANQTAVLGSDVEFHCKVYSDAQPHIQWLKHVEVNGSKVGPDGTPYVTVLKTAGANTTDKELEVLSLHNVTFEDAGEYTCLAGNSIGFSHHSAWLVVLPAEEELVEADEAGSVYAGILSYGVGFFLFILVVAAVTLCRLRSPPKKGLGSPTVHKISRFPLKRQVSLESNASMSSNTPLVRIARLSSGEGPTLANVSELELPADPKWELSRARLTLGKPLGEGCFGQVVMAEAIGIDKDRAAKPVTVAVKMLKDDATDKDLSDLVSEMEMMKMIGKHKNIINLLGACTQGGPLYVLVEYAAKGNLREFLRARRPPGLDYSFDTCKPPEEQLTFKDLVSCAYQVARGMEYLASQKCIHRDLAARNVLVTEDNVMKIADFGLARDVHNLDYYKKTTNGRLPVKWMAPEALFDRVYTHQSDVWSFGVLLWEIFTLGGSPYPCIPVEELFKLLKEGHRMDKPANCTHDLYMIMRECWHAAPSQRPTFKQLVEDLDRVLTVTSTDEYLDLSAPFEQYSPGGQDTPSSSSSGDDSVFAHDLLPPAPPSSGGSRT

[18] = system: Receptor-type tyrosine-protein kinase FLT3 (Homo sapiens), P36888 [N841I]; details: Compound concentration 1000.0 nM
[19] = molecular target: Vascular endothelial growth factor receptor 3 (Homo sapiens) (UniProt P35916); details: Compound concentration 1000.0 nM
[20] = molecular target: Tyrosine-protein kinase FRK (Homo sapiens) (UniProt P42685); details: Compound concentration 1000.0 nM
[21] = system: Mast/stem cell growth factor receptor Kit (Homo sapiens), P10721 [D816H]; details: Compound concentration 1000.0 nM
[22] = molecular target: Serine/threonine-protein kinase LATS2 (Homo sapiens) (UniProt Q9NRM7); details: Compound concentration 1000.0 nM
Sequence of Serine/threonine-protein kinase LATS2 (Homo sapiens) (Q9NRM7 whole entry): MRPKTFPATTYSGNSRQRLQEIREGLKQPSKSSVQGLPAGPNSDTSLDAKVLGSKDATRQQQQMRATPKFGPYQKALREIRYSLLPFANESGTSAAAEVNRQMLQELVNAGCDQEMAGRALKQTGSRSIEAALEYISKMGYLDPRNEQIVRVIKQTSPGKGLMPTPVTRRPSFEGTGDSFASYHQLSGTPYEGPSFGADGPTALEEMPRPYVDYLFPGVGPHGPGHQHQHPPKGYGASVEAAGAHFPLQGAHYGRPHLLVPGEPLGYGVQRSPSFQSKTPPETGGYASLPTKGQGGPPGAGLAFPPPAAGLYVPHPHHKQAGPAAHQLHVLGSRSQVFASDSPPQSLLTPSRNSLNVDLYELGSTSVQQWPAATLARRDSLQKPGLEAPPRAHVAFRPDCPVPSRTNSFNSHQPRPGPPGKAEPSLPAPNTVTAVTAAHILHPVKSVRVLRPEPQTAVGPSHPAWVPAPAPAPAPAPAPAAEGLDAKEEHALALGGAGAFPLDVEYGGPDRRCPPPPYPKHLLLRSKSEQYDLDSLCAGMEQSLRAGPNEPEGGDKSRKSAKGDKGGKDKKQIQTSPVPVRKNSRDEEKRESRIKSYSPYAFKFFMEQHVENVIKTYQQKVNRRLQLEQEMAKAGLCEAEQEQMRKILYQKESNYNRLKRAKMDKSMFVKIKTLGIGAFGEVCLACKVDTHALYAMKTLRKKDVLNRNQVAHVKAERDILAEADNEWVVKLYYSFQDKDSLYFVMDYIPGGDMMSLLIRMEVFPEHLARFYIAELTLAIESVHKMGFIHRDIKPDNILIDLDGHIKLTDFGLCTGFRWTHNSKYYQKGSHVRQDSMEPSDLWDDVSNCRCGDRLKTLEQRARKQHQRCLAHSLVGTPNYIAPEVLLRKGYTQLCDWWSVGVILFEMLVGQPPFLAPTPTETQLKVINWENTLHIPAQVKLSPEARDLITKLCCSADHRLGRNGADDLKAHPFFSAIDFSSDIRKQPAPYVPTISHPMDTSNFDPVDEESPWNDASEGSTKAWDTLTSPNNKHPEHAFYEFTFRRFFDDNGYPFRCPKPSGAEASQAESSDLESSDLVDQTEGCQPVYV

[23] = molecular target: Serine/threonine-protein kinase 10 (Homo sapiens) (UniProt O94804); details: Compound concentration 1000.0 nM
Sequence of Serine/threonine-protein kinase 10 (Homo sapiens) (O94804 whole entry, looked up): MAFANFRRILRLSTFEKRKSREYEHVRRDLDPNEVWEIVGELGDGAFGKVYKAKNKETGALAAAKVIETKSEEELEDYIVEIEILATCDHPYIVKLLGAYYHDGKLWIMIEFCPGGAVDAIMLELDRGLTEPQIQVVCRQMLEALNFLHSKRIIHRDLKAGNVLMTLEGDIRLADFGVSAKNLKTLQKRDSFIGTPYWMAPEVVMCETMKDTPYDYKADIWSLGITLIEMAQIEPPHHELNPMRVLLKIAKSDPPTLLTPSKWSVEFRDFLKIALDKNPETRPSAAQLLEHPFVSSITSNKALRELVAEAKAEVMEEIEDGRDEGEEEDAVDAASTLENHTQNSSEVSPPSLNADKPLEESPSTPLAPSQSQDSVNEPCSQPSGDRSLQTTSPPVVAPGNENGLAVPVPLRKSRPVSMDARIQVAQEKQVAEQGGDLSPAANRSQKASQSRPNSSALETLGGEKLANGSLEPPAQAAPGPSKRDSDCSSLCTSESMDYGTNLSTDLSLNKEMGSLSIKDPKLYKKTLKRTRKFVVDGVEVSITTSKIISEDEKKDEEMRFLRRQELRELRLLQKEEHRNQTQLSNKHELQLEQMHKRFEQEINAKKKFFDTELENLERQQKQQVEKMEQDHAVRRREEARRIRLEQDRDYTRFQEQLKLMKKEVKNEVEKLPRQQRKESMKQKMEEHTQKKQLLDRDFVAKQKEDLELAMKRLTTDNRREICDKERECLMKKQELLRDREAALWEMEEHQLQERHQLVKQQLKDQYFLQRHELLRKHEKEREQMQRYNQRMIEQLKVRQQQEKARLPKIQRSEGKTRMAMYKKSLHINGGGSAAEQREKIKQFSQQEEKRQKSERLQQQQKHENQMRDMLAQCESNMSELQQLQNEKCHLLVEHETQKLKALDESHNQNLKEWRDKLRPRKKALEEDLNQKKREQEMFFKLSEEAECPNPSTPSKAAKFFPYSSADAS

[24] = molecular target: Hepatocyte growth factor receptor (Homo sapiens) (UniProt P08581); details: Compound concentration 1000.0 nM
[25] = system: Hepatocyte growth factor receptor (Homo sapiens), P08581 [Y1235D]; details: Compound concentration 1000.0 nM
[26] = molecular target: Dual specificity mitogen-activated protein kinase kinase 7 (Homo sapiens) (UniProt O14733); details: Compound concentration 1000.0 nM
[27] = molecular target: Muscle, skeletal receptor tyrosine-protein kinase (Homo sapiens) (UniProt O15146); details: Compound concentration 1000.0 nM
[28] = molecular target: Serine/threonine-protein kinase Nek5 (Homo sapiens) (UniProt Q6P3R8); details: Compound concentration 1000.0 nM
Sequence of Serine/threonine-protein kinase Nek5 (Homo sapiens) (Q6P3R8 whole entry): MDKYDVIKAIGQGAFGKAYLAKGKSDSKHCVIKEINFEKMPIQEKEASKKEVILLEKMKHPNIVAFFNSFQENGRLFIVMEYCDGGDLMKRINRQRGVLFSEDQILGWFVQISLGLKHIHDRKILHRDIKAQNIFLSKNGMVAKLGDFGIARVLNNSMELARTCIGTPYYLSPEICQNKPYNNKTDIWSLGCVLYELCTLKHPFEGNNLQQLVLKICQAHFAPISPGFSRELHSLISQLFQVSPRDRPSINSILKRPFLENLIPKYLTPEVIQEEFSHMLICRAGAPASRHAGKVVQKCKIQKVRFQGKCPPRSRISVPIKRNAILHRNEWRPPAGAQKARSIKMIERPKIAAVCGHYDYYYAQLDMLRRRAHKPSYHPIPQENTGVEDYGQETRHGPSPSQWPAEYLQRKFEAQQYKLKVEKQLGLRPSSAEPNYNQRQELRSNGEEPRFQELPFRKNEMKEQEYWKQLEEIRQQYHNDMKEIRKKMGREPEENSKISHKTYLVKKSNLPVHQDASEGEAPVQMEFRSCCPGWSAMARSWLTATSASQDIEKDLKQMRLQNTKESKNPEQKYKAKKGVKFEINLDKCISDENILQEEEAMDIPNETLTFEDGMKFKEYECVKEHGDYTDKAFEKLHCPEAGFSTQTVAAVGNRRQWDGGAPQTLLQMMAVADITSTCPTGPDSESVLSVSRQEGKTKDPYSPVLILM

[29] = molecular target: Serine/threonine-protein kinase OSR1 (Homo sapiens) (UniProt O95747); details: Compound concentration 1000.0 nM
[30] = molecular target: 3-phosphoinositide-dependent protein kinase 1 (Homo sapiens) (UniProt O15530); details: Compound concentration 1000.0 nM
[31] = system: Phosphatidylinositol 4,5-bisphosphate 3-kinase catalytic subunit alpha isoform (Homo sapiens), P42336 [I800L]; details: Compound concentration 1000.0 nM
Sequence of Phosphatidylinositol 4,5-bisphosphate 3-kinase catalytic subunit alpha isoform (Homo sapiens), P42336 [I800L] (P42336 whole entry I800L, canonical isoform): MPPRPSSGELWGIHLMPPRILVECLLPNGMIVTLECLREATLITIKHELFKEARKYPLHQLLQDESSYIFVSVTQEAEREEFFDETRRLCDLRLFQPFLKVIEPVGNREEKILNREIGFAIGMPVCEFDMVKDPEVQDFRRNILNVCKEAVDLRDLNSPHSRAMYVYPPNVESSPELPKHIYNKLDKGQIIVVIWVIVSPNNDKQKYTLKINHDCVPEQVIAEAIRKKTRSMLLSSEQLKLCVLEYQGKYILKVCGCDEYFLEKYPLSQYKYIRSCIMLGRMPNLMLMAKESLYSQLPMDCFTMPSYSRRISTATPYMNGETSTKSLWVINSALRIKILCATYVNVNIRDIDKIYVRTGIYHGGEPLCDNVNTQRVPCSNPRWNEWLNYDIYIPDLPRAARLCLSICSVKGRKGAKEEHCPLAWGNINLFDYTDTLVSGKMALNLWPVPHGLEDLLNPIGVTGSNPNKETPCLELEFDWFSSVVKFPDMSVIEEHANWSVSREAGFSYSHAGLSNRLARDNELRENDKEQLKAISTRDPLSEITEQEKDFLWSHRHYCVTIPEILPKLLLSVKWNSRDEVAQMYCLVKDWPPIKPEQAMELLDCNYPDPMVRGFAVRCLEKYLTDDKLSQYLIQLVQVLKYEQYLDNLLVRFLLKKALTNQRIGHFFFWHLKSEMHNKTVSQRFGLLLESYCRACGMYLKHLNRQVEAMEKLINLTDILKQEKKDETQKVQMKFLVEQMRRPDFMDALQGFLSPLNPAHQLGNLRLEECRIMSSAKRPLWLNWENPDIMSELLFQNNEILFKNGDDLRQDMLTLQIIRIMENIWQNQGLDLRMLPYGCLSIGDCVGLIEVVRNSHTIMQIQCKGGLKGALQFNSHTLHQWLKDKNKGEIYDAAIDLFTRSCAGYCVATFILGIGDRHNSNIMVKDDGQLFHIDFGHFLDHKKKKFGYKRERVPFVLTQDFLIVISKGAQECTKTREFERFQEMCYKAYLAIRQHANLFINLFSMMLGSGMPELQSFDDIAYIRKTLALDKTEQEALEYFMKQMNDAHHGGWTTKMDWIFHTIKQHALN

[32] = molecular target: Phosphatidylinositol 4,5-bisphosphate 3-kinase catalytic subunit delta isoform (Homo sapiens) (UniProt O00329); details: Compound concentration 1000.0 nM
[33] = molecular target: Phosphatidylinositol 4-phosphate 5-kinase type-1 gamma (Homo sapiens) (UniProt O60331); details: Compound concentration 1000.0 nM
[34] = molecular target: cAMP-dependent protein kinase catalytic subunit alpha (Homo sapiens) (UniProt P17612); details: Compound concentration 1000.0 nM
[35] = molecular target: Proto-oncogene tyrosine-protein kinase receptor Ret (Homo sapiens) (UniProt P07949); details: Compound concentration 1000.0 nM
[36] = molecular target: Serine/threonine-protein kinase Sgk2 (Homo sapiens) (UniProt Q9HBY8); details: Compound concentration 1000.0 nM
[37] = molecular target: Transient receptor potential cation channel subfamily M member 6 (Homo sapiens) (UniProt Q9BX84); details: Compound concentration 1000.0 nM
[38] = molecular target: Wee1-like protein kinase (Homo sapiens) (UniProt P30291); details: Compound concentration 1000.0 nM

## O=C(NS(=O)(=O)c1ccc(NCC2CCOCC2)c([N+](=O)[O-])c1)c1ccc(N2CCN(Cc3ccc(C(F)(F)F)cc3-c3ccc(Cl)cc3)CC2)cc1Oc1cnc2[nH]ccc2c1 [A-1210227]
[1]
  % Inhibition of Control Specific Binding (Mean n=2): -57.7%
[2]
  % Inhibition of Control Specific Binding (Mean n=2): 0.3%
[3]
  % Inhibition of Control Specific Binding (Mean n=2): -2.4%
[4]
  % Inhibition of Control Specific Binding (Mean n=2): 3.5%
[5]
  residual activity: 100%
[6]
  residual activity: 100%
[7]
  residual activity: 89%
[8]
  residual activity: 84%
[9]
  residual activity: 92%
[10]
  residual activity: 92%
[11]
  residual activity: 100%
[12]
  residual activity: 75%
[13]
  residual activity: 100%
[14]
  residual activity: 84%
[15]
  residual activity: 88%
[16]
  residual activity: 94%
[17]
  residual activity: 100%
[18]
  residual activity: 100%
[19]
  residual activity: 100%
[20]
  residual activity: 100%
[21]
  residual activity: 76%
[22]
  residual activity: 100%
[23]
  residual activity: 100%
[24]
  residual activity: 93%
[25]
  residual activity: 98%
[26]
  residual activity: 100%
[27]
  residual activity: 98%
[28]
  residual activity: 100%
[29]
  residual activity: 83%
[30]
  residual activity: 70%
[31]
  residual activity: 100%
[32]
  residual activity: 60%
[33]
  residual activity: 100%
[34]
  residual activity: 76%
[35]
  residual activity: 96%
[36]
  residual activity: 100%
[37]
  residual activity: 89%
[38]
  residual activity: 100%

## CO[C@H]1CC[C@H](CNc2ccc(S(=O)(=O)NC(=O)c3ccc(N4CCN(CC5=C(c6ccc(Cl)cc6)CC(C)(C)CC5)CC4)cc3Oc3cnc4[nH]ccc4c3)cc2[N+](=O)[O-])CC1 [A-1211212]
[1]
  % Inhibition of Control Specific Binding (Mean n=2): -8%
[2]
  % Inhibition of Control Specific Binding (Mean n=2): -4.7%
[3]
  % Inhibition of Control Specific Binding (Mean n=2): -6.1%
[4]
  % Inhibition of Control Specific Binding (Mean n=2): 4.2%
[5]
  residual activity: 85%
[6]
  residual activity: 81%
[7]
  residual activity: 100%
[8]
  residual activity: 76%
[9]
  residual activity: 80%
[10]
  residual activity: 73%
[11]
  residual activity: 91%
[12]
  residual activity: 91%
[13]
  residual activity: 89%
[14]
  residual activity: 100%
[15]
  residual activity: 87%
[16]
  residual activity: 85%
[17]
  residual activity: 100%
[18]
  residual activity: 100%
[19]
  residual activity: 89%
[20]
  residual activity: 100%
[21]
  residual activity: 76%
[22]
  residual activity: 100%
[23]
  residual activity: 74%
[24]
  residual activity: 68%
[25]
  residual activity: 92%
[26]
  residual activity: 100%
[27]
  residual activity: 100%
[28]
  residual activity: 88%
[29]
  residual activity: 76%
[30]
  residual activity: 72%
[31]
  residual activity: 98%
[32]
  residual activity: 75%
[33]
  residual activity: 100%
[34]
  residual activity: 78%
[35]
  residual activity: 100%
[36]
  residual activity: 91%
[37]
  residual activity: 87%
[38]
  residual activity: 100%
